Results taken from PubChem BioAssay AID330 (DTP/NCI, 2004).
Several values for one entry are separate records, joined by “and”; a condition that tells them apart may be missing. Identical values can stand only once. Inconclusive results and toxic doses are left out. Rule for the calls: active = survival T/C of 150% or more; inactive = T/C below 125% in these data.

Tested on: P388 leukemia ip, CD2F1 mice, survival T/C
Assay: NCI In Vivo Anticancer Drug Screen. Data for tumor model P388 Leukemia (intraperitoneal) in CD2F1 (CDF1) mice
Settings: endpoint: median survival time, higher = longer survival
Outline: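 Mice carrying the transplanted tumor received test compound or vehicle. Survival was recorded in each group, and the value is the treated-group measurement divided by that of the vehicle-treated control group.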

[1] = dose: 50.0 mg/kg/injection, schedule: Q01DX005 (ip), vehicle: Klucel (hydroxypropylcellulose) (HPC)
[2] = dose: 100.0 mg/kg/injection, schedule: Q01DX005 (ip), vehicle: Klucel (hydroxypropylcellulose) (HPC)
[3] = dose: 200.0 mg/kg/injection, schedule: Q01DX005 (ip), vehicle: Klucel (hydroxypropylcellulose) (HPC)
[4] = dose: 50.0 mg/kg/injection, schedule: Q01DX009 (ip), vehicle: Klucel (hydroxypropylcellulose) (HPC)
[5] = dose: 100.0 mg/kg/injection, schedule: Q01DX001 (ip), vehicle: Klucel (hydroxypropylcellulose) (HPC)
[6] = dose: 200.0 mg/kg/injection, schedule: Q01DX001 (ip), vehicle: Klucel (hydroxypropylcellulose) (HPC)
[7] = dose: 60.0 mg/kg/injection, schedule: Q01DX005 (ip), vehicle: saline with Tween-80

Measured: T/C

CC(=O)Nc1cccc2nc(-c3ccccn3)n(CCc3ccccn3)c12
inactive: dose: 25.0 mg/kg/injection, schedule: Q01DX005 (ip), vehicle: Klucel (hydroxypropylcellulose) (HPC) 105 % of control | [1] 102 % of control | [2] 103 % of control | [3] 109 % of control

C=C1C(=O)C23CC1CCC2C12COC(OC(=O)CCCCCCCCCCCCCCC)C1C(C)(C)C(O)CC2OC3=O (stereo unspecified)
inactive: dose: 7.5 mg/kg/injection, schedule: Q01DX009 (ip), vehicle: saline with Tween-80 96 % of control | dose: 15.0 mg/kg/injection, schedule: Q01DX009 (ip), vehicle: saline with Tween-80 99 % of control | dose: 30.0 mg/kg/injection, schedule: Q01DX009 (ip), vehicle: saline with Tween-80 97 % of control | dose: 60.0 mg/kg/injection, schedule: Q01DX009 (ip), vehicle: saline with Tween-80 100 % of control

C=CCSc1nc2ccc(N=Cc3ccccc3O)cc2s1
inactive: dose: 100.0 mg/kg/injection, schedule: Q04DX003 (ip), vehicle: Klucel (hydroxypropylcellulose) (HPC) 88 % of control | dose: 200.0 mg/kg/injection, schedule: Q04DX003 (ip), vehicle: Klucel (hydroxypropylcellulose) (HPC) 91 % of control | dose: 400.0 mg/kg/injection, schedule: Q04DX003 (ip), vehicle: Klucel (hydroxypropylcellulose) (HPC) 92 % of control

O=C1CSC(=Nc2ccccc2F)N1c1ccccc1F
inactive: [4] 110 % of control | dose: 100.0 mg/kg/injection, schedule: Q01DX009 (ip), vehicle: Klucel (hydroxypropylcellulose) (HPC) 107 % of control

CC(=O)N(CC1CNc2nc(N)[nH]c(=O)c2N1)c1ccc(C(=O)NC(CCC(=O)O)C(=O)O)cc1 (stereo unspecified)
inactive: dose: 50.0 mg/kg/injection, schedule: Q04DX003 (ip), vehicle: saline 98 % of control | dose: 100.0 mg/kg/injection, schedule: Q04DX003 (ip), vehicle: saline 102 % of control | dose: 200.0 mg/kg/injection, schedule: Q04DX003 (ip), vehicle: saline 95 % of control

O=C1CCCCC1C(O)c1c(Cl)cccc1Cl (stereo unspecified)
inactive: dose: 50.0 mg/kg/injection, schedule: Q01DX009 (ip), vehicle: saline with Tween-80 99 % of control | dose: 100.0 mg/kg/injection, schedule: Q01DX009 (ip), vehicle: saline with Tween-80 99 % of control | dose: 200.0 mg/kg/injection, schedule: Q01DX009 (ip), vehicle: saline with Tween-80 100 % of control

CCOc1n[nH]c(-c2ccc(Cl)cc2Cl)n1
inactive: [5] 102 % of control | [6] 100 % of control | dose: 400.0 mg/kg/injection, schedule: Q01DX001 (ip), vehicle: Klucel (hydroxypropylcellulose) (HPC) 101 % of control

CC(CCc1ccc(O)cc1)NCCc1ccc(O)c(O)c1 (stereo unspecified)
inactive: dose: 50.0 mg/kg/injection, schedule: Q01DX009 (ip), vehicle: suspension in saline 100 % of control | dose: 100.0 mg/kg/injection, schedule: Q01DX009 (ip), vehicle: suspension in saline 104 % of control | dose: 200.0 mg/kg/injection, schedule: Q01DX009 (ip), vehicle: suspension in saline 115 % of control

CCOC(=O)C(=[N+]=[N-])C(=O)OCC12CCC=C1CC1(CC2)OCCO1 (stereo unspecified)
inactive: dose: 50.0 mg/kg/injection, schedule: Q01DX005 (ip), vehicle: saline with Tween-80 101 % of control | dose: 100.0 mg/kg/injection, schedule: Q01DX005 (ip), vehicle: saline with Tween-80 108 % of control | dose: 200.0 mg/kg/injection, schedule: Q01DX005 (ip), vehicle: saline with Tween-80 102 % of control

Cc1ccc(NCC2CCCN3CCCCC23)c2c(=O)c3cc(O)ccc3sc12 (stereo unspecified)
inactive: dose: 100.0 mg/kg/injection, schedule: Q04DX002 (ip), vehicle: saline with Tween-80 97 % of control | dose: 200.0 mg/kg/injection, schedule: Q04DX002 (ip), vehicle: saline with Tween-80 102 % of control

CC(/C=N\NC(=S)SCc1ccccc1)=N/NC(N)=S
inactive: dose: 100.0 mg/kg/injection, schedule: Q01DX001 (ip), vehicle: saline 106 % of control | dose: 200.0 mg/kg/injection, schedule: Q01DX001 (ip), vehicle: saline 106 % of control | dose: 400.0 mg/kg/injection, schedule: Q01DX001 (ip), vehicle: saline 103 % of control

COc1cc2c(cc1OC)CN1CSc3cc(OC)c(OC)cc3C1C2 (stereo unspecified)
inactive: dose: 100.0 mg/kg/injection, schedule: Q01DX001 (ip), vehicle: saline with Tween-80 92 % of control | dose: 200.0 mg/kg/injection, schedule: Q01DX001 (ip), vehicle: saline with Tween-80 92 % of control

Nc1nc2c(nc(OCc3ccccc3)n2C2OC(CO)C(O)C2O)c(=O)n1N (stereo unspecified)
inactive: [7] 104 % of control | dose: 120.0 mg/kg/injection, schedule: Q01DX005 (ip), vehicle: saline with Tween-80 96 % of control | dose: 240.0 mg/kg/injection, schedule: Q01DX005 (ip), vehicle: saline with Tween-80 100 % of control

COc1ccc(Cc2cc(C(C)(C)C)cc(C(C)(C)C)c2O)cc1
inactive: dose: 50.0 mg/kg/injection, schedule: Q01DX005 (ip), vehicle: distilled water + alcohol 96 % of control | dose: 100.0 mg/kg/injection, schedule: Q01DX005 (ip), vehicle: distilled water + alcohol 96 % of control | dose: 200.0 mg/kg/injection, schedule: Q01DX005 (ip), vehicle: distilled water + alcohol 95 % of control

COc1cccc2c1N(COC(C)=O)C(=O)C1C=CC(C)(C)OC21 (stereo unspecified)
inactive: dose: 8.0 mg/kg/injection, schedule: Q01DX009 (ip), vehicle: Klucel (hydroxypropylcellulose) (HPC) 97 % of control | dose: 16.0 mg/kg/injection, schedule: Q01DX009 (ip), vehicle: Klucel (hydroxypropylcellulose) (HPC) 95 % of control | dose: 32.0 mg/kg/injection, schedule: Q01DX009 (ip), vehicle: Klucel (hydroxypropylcellulose) (HPC) 97 % of control | dose: 64.0 mg/kg/injection, schedule: Q01DX009 (ip), vehicle: Klucel (hydroxypropylcellulose) (HPC) 92 % of control

CC1OC(=O)/C(=C\N(C)C)C1=O (stereo unspecified)
inactive: [1] 105 % of control | [2] 111 % of control | [3] 109 % of control

CC1(C)S(=O)(=O)OCCOS1(=O)=O
inactive: dose: 3.75 mg/kg/injection, schedule: Q01DX005 (ip), vehicle: Klucel (hydroxypropylcellulose) (HPC) 107 % of control | dose: 7.5 mg/kg/injection, schedule: Q01DX005 (ip), vehicle: Klucel (hydroxypropylcellulose) (HPC) 107 % of control and 111 % of control and 115 % of control | dose: 15.0 mg/kg/injection, schedule: Q01DX005 (ip), vehicle: Klucel (hydroxypropylcellulose) (HPC) 119 % of control

COC(=O)c1cn[nH]c1CC(N)=O
inactive: dose: 60.0 mg/kg/injection, schedule: Q01DX005 (ip), vehicle: saline 100 % of control | dose: 120.0 mg/kg/injection, schedule: Q01DX005 (ip), vehicle: saline 103 % of control | dose: 240.0 mg/kg/injection, schedule: Q01DX005 (ip), vehicle: saline 103 % of control

CN(CCOc1c(I)cc(I)cc1I)CC(O)C(O)C(O)C(O)CO (stereo unspecified)
inactive: dose: 50.0 mg/kg/injection, schedule: Q01DX001 (ip), vehicle: Klucel (hydroxypropylcellulose) (HPC) 110 % of control | [4] 94 % of control | [5] 108 % of control | [6] 109 % of control

CCn1c(O)c(N=NC(=S)c2ccc3ccccc3n2)c2ccccc21
inactive: dose: 50.0 mg/kg/injection, schedule: Q01DX009 (ip), vehicle: saline 104 % of control | dose: 100.0 mg/kg/injection, schedule: Q01DX009 (ip), vehicle: saline 96 % of control | dose: 200.0 mg/kg/injection, schedule: Q01DX009 (ip), vehicle: saline 86 % of control

CCOC1(C2(O)CCCCC2)CC(C)=NO1 (stereo unspecified)
inactive: dose: 100.0 mg/kg/injection, schedule: Q04DX002 (ip), vehicle: Klucel (hydroxypropylcellulose) (HPC) 104 % of control | dose: 200.0 mg/kg/injection, schedule: Q04DX002 (ip), vehicle: Klucel (hydroxypropylcellulose) (HPC) 98 % of control | dose: 400.0 mg/kg/injection, schedule: Q04DX002 (ip), vehicle: Klucel (hydroxypropylcellulose) (HPC) 102 % of control

CC1(C)CC[C@H](C2=CC(=O)c3c(O)ccc(O)c3C2=O)O1
inactive: dose: 1.25 mg/kg/injection, schedule: Q01DX009 (ip), vehicle: Klucel (hydroxypropylcellulose) (HPC) 117 % of control | dose: 2.5 mg/kg/injection, schedule: Q01DX009 (ip), vehicle: Klucel (hydroxypropylcellulose) (HPC) 115 % of control | dose: 5.0 mg/kg/injection, schedule: Q01DX009 (ip), vehicle: Klucel (hydroxypropylcellulose) (HPC) 119 % of control | dose: 10.0 mg/kg/injection, schedule: Q01DX009 (ip), vehicle: Klucel (hydroxypropylcellulose) (HPC) 118 % of control

CC1C/C(=C\N=[N+]=[N-])C(=O)O1 (stereo unspecified)
inactive: dose: 15.0 mg/kg/injection, schedule: Q01DX005 (ip), vehicle: saline with Tween-80 107 % of control | dose: 30.0 mg/kg/injection, schedule: Q01DX005 (ip), vehicle: saline with Tween-80 105 % of control | [7] 105 % of control and 94 % of control
